Assay results taken from the NIST ThermoML archive (doi:10.1021/acs.jced.8b00524).

Experiment: xn = mol fraction of the nth substance listed
Conditions: 100 kPa, Liquid; for viscosity: Concentric cylinders viscometry; for mass density: Vibrating tube method

CCCCOC(C)=O [butyl ethanoate] + CCCCCCO
Conditions | mass density [kg/m3] | viscosity [mPa·s]
293.15 K, x1 = 0.0811 | 823.6 | 4.7
293.15 K, x1 = 0.1602 | 828.4 | 4.14
293.15 K, x1 = 0.2398 | 833.3 | 3.64
293.15 K, x1 = 0.3507 | 840.1 | 3.04
293.15 K, x1 = 0.4402 | 845.7 | 2.63
293.15 K, x1 = 0.5596 | 853.1 | 2.16
293.15 K, x1 = 0.6504 | 858.9 | 1.84
293.15 K, x1 = 0.7398 | 864.5 | 1.55
293.15 K, x1 = 0.8507 | 871.6 | 1.2
293.15 K, x1 = 0.9397 | 877.2 | 0.92
293.15 K, x1 = 1 | 881.1 | 0.732
298.15 K, x1 = 0.0811 | 819.8 | 3.99
298.15 K, x1 = 0.1602 | 824.4 | 3.5
298.15 K, x1 = 0.2398 | 829.1 | 3.06
298.15 K, x1 = 0.3507 | 835.8 | 2.56
298.15 K, x1 = 0.4402 | 841.2 | 2.22
298.15 K, x1 = 0.5596 | 848.5 | 1.82
298.15 K, x1 = 0.6504 | 854 | 1.56
298.15 K, x1 = 0.7398 | 859.6 | 1.32
298.15 K, x1 = 0.8507 | 866.5 | 1.05
298.15 K, x1 = 0.9397 | 872.1 | 0.83
298.15 K, x1 = 1 | 876 | 0.677
303.15 K, x1 = 0.0811 | 815.9 | 3.41
303.15 K, x1 = 0.1602 | 820.3 | 2.99
303.15 K, x1 = 0.2398 | 824.8 | 2.61
303.15 K, x1 = 0.3507 | 831.2 | 2.18
303.15 K, x1 = 0.4402 | 836.5 | 1.89
303.15 K, x1 = 0.5596 | 843.6 | 1.56
303.15 K, x1 = 0.6504 | 849.1 | 1.34
303.15 K, x1 = 0.7398 | 854.5 | 1.15
303.15 K, x1 = 0.8507 | 861.3 | 0.93
303.15 K, x1 = 0.9397 | 866.9 | 0.76
303.15 K, x1 = 1 | 870.9 | 0.628
308.15 K, x1 = 0.0811 | 812 | 2.94
308.15 K, x1 = 0.1602 | 816.2 | 2.57
308.15 K, x1 = 0.2398 | 820.6 | 2.24
308.15 K, x1 = 0.3507 | 826.7 | 1.86
308.15 K, x1 = 0.4402 | 831.8 | 1.61
308.15 K, x1 = 0.5596 | 838.7 | 1.33
308.15 K, x1 = 0.6504 | 844 | 1.16
308.15 K, x1 = 0.7398 | 849.4 | 1
308.15 K, x1 = 0.8507 | 856.2 | 0.82
308.15 K, x1 = 0.9397 | 861.7 | 0.69
308.15 K, x1 = 1 | 865.7 | 0.585
313.15 K, x1 = 0.0811 | 808 | 2.54
313.15 K, x1 = 0.1602 | 811.9 | 2.21
313.15 K, x1 = 0.2398 | 816 | 1.93
313.15 K, x1 = 0.3507 | 821.8 | 1.61
313.15 K, x1 = 0.4402 | 826.7 | 1.41
313.15 K, x1 = 0.5596 | 833.5 | 1.18
313.15 K, x1 = 0.6504 | 838.8 | 1.04
313.15 K, x1 = 0.7398 | 844.1 | 0.92
313.15 K, x1 = 0.8507 | 850.9 | 0.76
313.15 K, x1 = 0.9397 | 856.4 | 0.63
313.15 K, x1 = 1 | 860.5 | 0.546
318.15 K, x1 = 0.0811 | 804.2 | 2.21
318.15 K, x1 = 0.1602 | 807.9 | 1.92
318.15 K, x1 = 0.2398 | 811.7 | 1.68
318.15 K, x1 = 0.3507 | 817.4 | 1.4
318.15 K, x1 = 0.4402 | 822.1 | 1.23
318.15 K, x1 = 0.5596 | 828.6 | 1.05
318.15 K, x1 = 0.6504 | 833.8 | 0.93
318.15 K, x1 = 0.7398 | 839 | 0.83
318.15 K, x1 = 0.8507 | 845.7 | 0.7
318.15 K, x1 = 0.9397 | 851.2 | 0.59
318.15 K, x1 = 1 | 855.3 | 0.512
323.15 K, x1 = 0.0811 | 800.1 | 1.96
323.15 K, x1 = 0.1602 | 803.5 | 1.71
323.15 K, x1 = 0.2398 | 807.2 | 1.49
323.15 K, x1 = 0.3507 | 812.5 | 1.25
323.15 K, x1 = 0.4402 | 817.1 | 1.09
323.15 K, x1 = 0.5596 | 823.5 | 0.93
323.15 K, x1 = 0.6504 | 828.6 | 0.83
323.15 K, x1 = 0.7398 | 833.8 | 0.75
323.15 K, x1 = 0.8507 | 840.4 | 0.65
323.15 K, x1 = 0.9397 | 846 | 0.56
323.15 K, x1 = 1 | 850.1 | 0.485
